We go through seven compounds from patent US7608599B2, “Antiviral phosphoramidates” (Roche Palo Alto LLC, priority 2005, dated 2009).

One assay has as its system HIV.
Assay: not given
The note with it: background, Ohrui et al.; cited from earlier work.
For `C#CC1(CO)OC(n2ccc(N)nc2=O)C(O)C1O` (stereo not shown) [Compound 6a, 4-Ethynyl-cytarabine], the anti-HIV activity entry was “good anti-HIV activity”.

Consider `C#C[C@]1(CO)O[C@@H](n2cc(C)c(=O)[nH]c2=O)[C@@H](O)[C@@H]1O` [Compound 6b], for which the anti-HIV activity entry was “inactive”.

The subject of the next assay is HCV replicon RNA replication (Renilla luciferase HCV replicon cells 2209-23). As to the kind of experiment: Renilla luciferase assay (HCV replicon). In kind it is cell-based. The following applies: 72 h; Huh7-derived replicon cell line 2209-23, three days incubation, luciferase readout. (In general: Replicon systems follow genome replication, usually without infectious particles.)
By IC50 is commonly meant the concentration that inhibits the measured activity by half. A lower IC50 goes with greater potency. `C[C@H](NP(=O)(OC[C@@]1(N=[N+]=[N-])O[C@@H](n2ccc(=O)[nH]c2=O)[C@H](O)[C@@H]1O)Oc1ccccc1)C(=O)OCc1ccccc1` (stereo partly drawn) [Compound I-13, (S)-2-{[(2R,3S,4R,5R)-2-Azido-5-(2,4-dioxo-3,4-dihydro-2H-pyrimidin-1-yl)-3,4-dihydroxy-tetrahydro-furan-2-ylmethoxy]-phenoxy-phosphorylamino}-propionic acid benzyl ester]: it took 0.754 µM to reach half-maximal inhibition (IC50). On to `CC(C)OC(=O)[C@H](C)NP(=O)(OC[C@@]1(N=[N+]=[N-])O[C@@H](n2ccc(=O)[nH]c2=O)[C@H](O)[C@@H]1O)Oc1ccccc1` (stereo partly drawn) [Compound I-14, (S)-2-{[(2R,3S,4R,5R)-2-Azido-5-(2,4-dioxo-3,4-dihydro-2H-pyrimidin-1-yl)-3,4-dihydroxy-tetrahydro-furan-2-ylmethoxy]-phenoxy-phosphorylamino}-propionic acid isopropyl ester], for which the IC50 was 0.864 µM. As to `CCC(C)OC(=O)[C@H](C)NP(=O)(OC[C@@]1(N=[N+]=[N-])O[C@@H](n2ccc(N)nc2=O)[C@H](O)[C@@H]1O)Oc1ccccc1` (stereo partly drawn) [Compound I-28, (S)-2-{[(2R,3S,4R,5R)-5-(4-Amino-2-oxo-2H-pyrimidin-1-yl)-2-azido-3,4-dihydroxy-tetrahydro-furan-2-ylmethoxy]-phenoxy-phosphorylamino}-propionic acid sec-butyl ester], it took 0.615 µM to reach half-maximal inhibition (IC50). Compound `CCOC(=O)[C@H](C)NP(=O)(OC[C@@]1(N=[N+]=[N-])O[C@@H](n2ccc(N)nc2=O)[C@H](O)[C@@H]1O)Oc1ccccc1` (stereo partly drawn) [Compound I-34, (S)-2-{[(2R,3S,4R,5R)-5-(4-Amino-2-oxo-2H-pyrimidin-1-yl)-2-azido-3,4-dihydroxy-tetrahydro-furan-2-ylmethoxy]-phenoxy-phosphorylamino}-propionic acid ethyl ester] had an IC50 of 0.382 µM. Compound `CC(C)OC(=O)[C@H](C)NP(=O)(OC[C@@]1(N=[N+]=[N-])O[C@@H](n2ccc(N)nc2=O)[C@H](O)[C@@H]1O)Oc1ccccc1` (stereo partly drawn) [Compound I-35, (S)-2-{[(2R,3S,4R,5R)-5-(4-Amino-2-oxo-2H-pyrimidin-1-yl)-2-azido-3,4-dihydroxy-tetrahydro-furan-2-ylmethoxy]-phenoxy-phosphorylamino}-propionic acid isopropyl ester] yielded a 50% inhibitory concentration (IC50) of 0.991 µM.
